# Laboratory results taken from ChEMBL document CHEMBL4476884, “Thienopyridine carboxamides as ubiquitin-specific protease inhibitors” (2017).
# Key:
# [1] = target: T1, Ubiquitin carboxyl-terminal hydrolase 25 (Homo sapiens, UniProt Q9UHP3); experiment: Inhibition of recombinant C-terminal 6-His tagged human USP25 using ubiquitin-rhodamine 110 as substrate preincubated for 30 mins followed by substrate addition and measured after 45 mins by fluorescence based assay
# T1 sequence (Q9UHP3 whole entry): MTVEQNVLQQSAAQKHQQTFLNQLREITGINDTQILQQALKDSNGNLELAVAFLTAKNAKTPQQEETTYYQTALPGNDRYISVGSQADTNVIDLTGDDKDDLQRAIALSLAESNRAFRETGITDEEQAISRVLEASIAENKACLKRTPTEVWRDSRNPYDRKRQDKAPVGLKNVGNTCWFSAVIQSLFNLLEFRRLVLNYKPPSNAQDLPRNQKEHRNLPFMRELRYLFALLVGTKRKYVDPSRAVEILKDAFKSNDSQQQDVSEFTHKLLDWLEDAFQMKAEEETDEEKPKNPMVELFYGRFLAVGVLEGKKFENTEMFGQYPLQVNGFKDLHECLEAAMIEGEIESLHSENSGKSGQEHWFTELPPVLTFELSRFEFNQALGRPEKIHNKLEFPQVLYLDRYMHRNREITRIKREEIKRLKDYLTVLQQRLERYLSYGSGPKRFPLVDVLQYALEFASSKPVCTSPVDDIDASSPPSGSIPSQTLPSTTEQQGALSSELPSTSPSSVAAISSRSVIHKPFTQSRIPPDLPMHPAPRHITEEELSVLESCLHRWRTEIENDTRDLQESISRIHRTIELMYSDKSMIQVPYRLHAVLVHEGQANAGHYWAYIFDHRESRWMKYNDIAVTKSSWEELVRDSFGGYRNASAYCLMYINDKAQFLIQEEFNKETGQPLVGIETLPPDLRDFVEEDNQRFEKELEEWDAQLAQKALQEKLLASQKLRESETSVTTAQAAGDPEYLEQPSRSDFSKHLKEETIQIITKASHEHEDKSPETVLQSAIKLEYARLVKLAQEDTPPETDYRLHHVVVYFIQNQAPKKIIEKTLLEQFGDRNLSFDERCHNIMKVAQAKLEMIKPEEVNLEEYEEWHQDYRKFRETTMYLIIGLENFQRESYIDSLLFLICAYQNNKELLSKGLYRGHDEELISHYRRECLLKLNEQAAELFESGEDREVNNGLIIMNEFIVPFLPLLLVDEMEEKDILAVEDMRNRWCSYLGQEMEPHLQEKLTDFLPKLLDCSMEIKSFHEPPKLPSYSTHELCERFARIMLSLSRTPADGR
# [2] = target: T2, Ubiquitin carboxyl-terminal hydrolase 28 (Homo sapiens, UniProt Q96RU2); experiment: Inhibition of TEV-cleavable hexa-histidine tagged USP28 (1 to 1077 residues) (unknown origin) using ubiquitin-rhodamine 110 as substrate and measured after 90 mins by fluorescence based assay
# T2 sequence (Q96RU2 whole entry): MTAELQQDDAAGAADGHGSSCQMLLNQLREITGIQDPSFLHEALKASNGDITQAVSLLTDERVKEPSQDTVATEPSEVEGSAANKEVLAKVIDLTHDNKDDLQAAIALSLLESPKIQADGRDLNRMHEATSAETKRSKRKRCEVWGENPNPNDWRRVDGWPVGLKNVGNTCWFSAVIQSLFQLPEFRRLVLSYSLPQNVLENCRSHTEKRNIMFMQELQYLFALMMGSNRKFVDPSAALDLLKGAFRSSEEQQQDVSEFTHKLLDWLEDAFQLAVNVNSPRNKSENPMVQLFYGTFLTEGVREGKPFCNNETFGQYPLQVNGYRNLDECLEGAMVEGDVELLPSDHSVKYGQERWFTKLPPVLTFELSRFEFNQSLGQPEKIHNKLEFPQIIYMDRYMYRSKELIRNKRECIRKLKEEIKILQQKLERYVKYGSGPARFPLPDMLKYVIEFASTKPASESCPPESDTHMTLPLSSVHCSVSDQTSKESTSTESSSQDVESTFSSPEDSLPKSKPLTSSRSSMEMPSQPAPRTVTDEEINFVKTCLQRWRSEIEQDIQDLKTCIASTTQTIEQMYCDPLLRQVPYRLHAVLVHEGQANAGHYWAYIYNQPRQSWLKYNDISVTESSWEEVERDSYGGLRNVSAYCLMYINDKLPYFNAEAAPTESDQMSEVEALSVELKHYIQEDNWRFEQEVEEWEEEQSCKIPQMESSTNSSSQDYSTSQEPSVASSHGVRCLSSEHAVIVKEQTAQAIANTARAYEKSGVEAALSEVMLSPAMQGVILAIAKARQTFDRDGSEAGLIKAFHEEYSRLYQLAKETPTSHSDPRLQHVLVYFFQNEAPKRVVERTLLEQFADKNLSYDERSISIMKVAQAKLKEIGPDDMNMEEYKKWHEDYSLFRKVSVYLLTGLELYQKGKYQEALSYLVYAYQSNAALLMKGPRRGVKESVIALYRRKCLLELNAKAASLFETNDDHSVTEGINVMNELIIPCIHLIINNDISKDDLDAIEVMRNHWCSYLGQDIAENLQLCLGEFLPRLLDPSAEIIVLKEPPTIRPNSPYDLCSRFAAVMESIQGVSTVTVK
SMILES,IC50 [1] [nM],IC50 [2] [nM]
Cc1ccc2c(N)c(C(=O)NCCc3ccc(N4CCC(NC5CC5)C4)cc3)sc2n1 (centres undefined),200 to 2000,200 to 2000
Cc1ccc2c(N)c(C(=O)NCCc3ccc(N4CCNCC4)c(-c4ccccc4C)c3)sc2n1,2000 to 10000,200 to 2000
Cc1ccc2c(N)c(C(=O)NCCc3ccc(N4CCNCC4)c(-c4ccccc4F)c3)sc2n1,2000 to 10000,200 to 2000
Cc1ccc2c(N)c(C(=O)NCCc3ccc(N4CCNCC4)c(-c4cccc(F)c4)c3)sc2n1,2000 to 10000,2000 to 10000
Cc1ccc2c(N)c(C(=O)NCCc3ccc(N4CCC5(CNCCO5)C4)cc3)sc2n1 (centres undefined),2000 to 10000,200 to 2000
CN[C@H]1CCN(c2ccc(CCNC(=O)c3sc4nc(C)ccc4c3N)cc2)C1,200 to 2000,200 to 2000
Cc1ccc2c(N)c(C(=O)NCCc3ccc(N4CCOC5(CCNCC5)C4)cc3)sc2n1,–,200 to 2000
Cc1ccc2c(N)c(C(=O)NCCc3ccc(N4CCC5(CCNC5)CC4)cc3)sc2n1,–,200 to 2000
Cc1ccc2c(N)c(C(=O)NCCc3ccc(N4CCN[C@H](C)C4)cc3)sc2n1,200 to 2000,< 200
CC(=O)Nc1ccc2c(N)c(C(=O)NCCc3ccc(N4CCNCC4)cc3)sc2n1,–,2000 to 10000
Cc1ccc2c(N)c(C(=O)NCCc3ccc(N4CCC5(CCNCC5)C4)cc3)sc2n1,2000 to 10000,200 to 2000
Cc1cc(-c2cc(CCNC(=O)c3sc4nc(C)ccc4c3N)ccc2N2CCNCC2)ccn1,10000 to 25000,2000 to 10000
Cc1ccc2c(N)c(C(=O)NCCc3ccc(N4CCNCC4)c(-c4cnn(C)c4)c3)sc2n1,2000 to 10000,200 to 2000
Cc1ccc2c(N)c(C(=O)NCCc3ccc(N4CCNC[C@H]4C)cc3)sc2n1,< 200,< 200
Cc1ccc2c(N)c(C(=O)NCCc3ccc(N4CCC5(CCNC5)C4)cc3)sc2n1 (centres undefined),2000 to 10000,200 to 2000
Cc1ccc2c(N)c(C(=O)NCCc3ccc(N4CCN[C@@H](C(C)C)C4)cc3)sc2n1,200 to 2000,200 to 2000
Cc1ccc2c(N)c(C(=O)NCCc3ccc(N4CCNCC4)c(-c4cccc(Cl)c4)c3)sc2n1,2000 to 10000,2000 to 10000
Cc1ccc2c(N)c(C(=O)NCCc3ccc(N4CCNCC4)c(-c4ccc(Cl)cc4)c3)sc2n1,2000 to 10000,2000 to 10000
Cc1ccc2c(N)c(C(=O)NCCc3ccc(N4CC5(CNC5)C4)cc3)sc2n1,2000 to 10000,200 to 2000
Cc1ccc2c(N)c(C(=O)NCCc3ccc(N4CCN[C@H](C(C)C)C4)cc3)sc2n1,200 to 2000,< 200
Cc1ccc2c(N)c(C(=O)NCCc3ccc(N4CCNC[C@@H]4C)cc3)sc2n1,–,< 200

SMILES,IC50 [1] [nM],IC50 [2] [nM]
Cc1ccc2c(N)c(C(=O)NCCc3ccc(N4CCCC5(CCNCC5)C4)cc3)sc2n1,200 to 2000,< 200
Cc1ccc2c(N)c(C(=O)NCCc3ccc(N4CC[C@H]5CNC[C@H]5C4)cc3)sc2n1,–,200 to 2000
Cc1ccc2c(N)c(C(=O)NCCc3ccc(N4CCNCC4)c(-c4ccccc4Cl)c3)sc2n1,200 to 2000,200 to 2000
Cc1ccc2c(N)c(C(=O)NCCc3ccc(N4CCCC5(CCNC5)C4)cc3)sc2n1 (centres undefined),200 to 2000,200 to 2000
Cc1ccc2c(N)c(C(=O)NCCc3ccc(N4CCCNCC4)cc3)sc2n1,200 to 2000,200 to 2000
Cc1ccc2c(N)c(C(=O)NCCc3ccc(N4CCNCC4)c(-c4ccc(F)cc4)c3)sc2n1,2000 to 10000,2000 to 10000
Cc1ccc2c(N)c(C(=O)NCCc3ccc(N4CCC5(CCCNC5)CC4)cc3)sc2n1,200 to 2000,200 to 2000
Cc1ccc2c(N)c(C(=O)NCCc3ccc(N4CCCC5(CCCNC5)C4)cc3)sc2n1 (centres undefined),200 to 2000,200 to 2000
Cc1ccc2c(N)c(C(=O)NCCc3ccc(N4CCNCC4)c(-c4cncnc4)c3)sc2n1,200 to 2000,200 to 2000
Cc1ccc2c(N)c(C(=O)NCCc3ccc(N4C[C@H]5CNC[C@H]5C4)cc3)sc2n1,200 to 2000,200 to 2000
Cc1ccc2c(N)c(C(=O)NCCc3ccc(N(C)CC4CCCNC4)cc3)sc2n1 (centres undefined),200 to 2000,200 to 2000
COCCn1cc(-c2cc(CCNC(=O)c3sc4nc(C)ccc4c3N)ccc2N2CCNCC2)cn1,2000 to 10000,2000 to 10000
Cc1ccc2c(N)c(C(=O)NCCc3ccc(N4CC5(CCCN5)C4)cc3)sc2n1,200 to 2000,< 200
Cc1ccc2c(N)c(C(=O)NCCc3ccc(N4CCCC45CCCNC5)cc3)sc2n1 (centres undefined),200 to 2000,< 200
Cc1ccc2c(N)c(C(=O)NCCc3ccc(N[C@@H]4CCNC4)cc3)sc2n1,–,< 200
CN[C@@H]1CCN(c2ccc(CCNC(=O)c3sc4nc(C)ccc4c3N)cc2)C1,–,200 to 2000
Cc1cccc(-c2cc(CCNC(=O)c3sc4nc(C)ccc4c3N)ccc2N2CCNCC2)c1,2000 to 10000,10000 to 25000
Cc1ccc2c(N)c(C(=O)NCCc3ccc(N4CCC5(CC4)CNC5)cc3)sc2n1,200 to 2000,< 200
CNC1CCN(c2ccc(CCNC(=O)c3sc4nc(C)ccc4c3N)cc2)CC1,–,200 to 2000
Cc1ccc(-c2cc(CCNC(=O)c3sc4nc(C)ccc4c3N)ccc2N2CCNCC2)cc1,2000 to 10000,2000 to 10000
